Consider 24 molecules from ChEMBL document CHEMBL4359857, “Design, synthesis and biological evaluation of chalcones as reversers of P-glycoprotein-mediated multidrug resistance” (Eur J Med Chem, 2019).

Molecules are shown by their SMILES.

One data set relates to MCF7-DOX. Nature of the data set: Cytotoxicity against human MCF7/Dox cells assessed as reduction in cell viability after 48 hrs by MTT assay. Format: cell-based.
Data set [1] in a line: Cytotoxicity against human MCF7/Dox cells assessed as cell survival at 12.5 uM after 48 hrs by MTT assay relative to control. Format: cell-based. The settings on record: read-out: Survival.
Data set [2] can be described thus: Reversal of P-gp-mediated multidrug resistance in human MCF7/Dox cells assessed as potentiation of doxorubicin-induced cytotoxicity by measuring doxorubicin IC50 at 12.5 uM after 48 hrs by MTT assay (reference value: 51.19 +/- 0.95 microM).

As to `COc1cc(OC)c(C(=O)/C=C/c2cc(OC)c(OC)c(OC)c2)c(O)c1CC=C(C)C`, the IC50 stood at 74.9 µM in the data set with MCF7-DOX and 26.56 µM in data set [2]. Also, the viability at 48 h, 12.5 µM in data set [1] came out at 90.8%.

Turning to `COc1cc(O)c(C(=O)/C=C/c2cccc(N3CCNCC3)c2)c(OC)c1`, in the data set on MCF7-DOX, the IC50 amounted to 99.2 µM. Further, the viability at 48 h, 12.5 µM in data set [1] was > 99%.

On to `COc1cc(OC)c(C(=O)/C=C/c2cccc(N3CCN(C)CC3)c2)c(O)c1CC=C(C)C`, for which the half-inhibitory concentration (IC50) in the data set on MCF7-DOX is > 100 µM; in data set [2], 23.59 µM. Also, the viability at 48 h, 12.5 µM in data set [1] was > 99%.

`COc1cc(OC)c(C(=O)/C=C/c2cccc(N3CCOCC3)c2)c(O)c1CC=C(C)C`: in the data set on MCF7-DOX, the IC50 is > 100 µM. Also, the viability at 48 h, 12.5 µM in data set [1] is > 99%.

For `COc1cc(O)c(C(=O)/C=C/c2cccc(N3CCN(C(=O)c4ccc(OC)c(OC)c4)CC3)c2)c(OC)c1`, the IC50 in the data set with MCF7-DOX was > 100 µM. Also, in data set [1], the viability at 48 h, 12.5 µM is > 99%.

For the molecule `COc1cc(OC)c(C(=O)/C=C/c2ccc(OC)c(OC)c2OC)c(O)c1CC=C(C)C`, the IC50 in the data set on MCF7-DOX worked out at 62.6 µM. In data set [1], the viability at 48 h, 12.5 µM was 91.9%.

Take `COc1cc(O)c(C(=O)/C=C/c2ccc(N3CCN(C(=O)OC(C)(C)C)CC3)cc2)c(OC)c1`: the IC50 in the data set on MCF7-DOX came to 47.3 µM. Also, the viability at 48 h, 12.5 µM in data set [1] was 90.6%.

`COc1ccc(C(=O)/C=C/c2cccc(N3CCNCC3)c2)c(OC)c1`: in the data set with MCF7-DOX, the IC50 came out at 95 µM. Further, the viability at 48 h, 12.5 µM in data set [1] was 96.4%.

On to `COc1cc(OC)c(C(=O)/C=C/c2ccc(Cl)cc2)c(O)c1CC=C(C)C`, for which, in the data set with MCF7-DOX, the IC50 is 43.4 µM. The viability at 48 h, 12.5 µM in data set [1] was found to be 90.1%.

In the case of `COc1cc(O)c(C(=O)/C=C/c2cccc(N3CCOCC3)c2)c(OC)c1`, in the data set on MCF7-DOX, the IC50 is > 100 µM. For the same molecule, the viability at 48 h, 12.5 µM in data set [1] is > 99%.

As to `COc1c(C)c(O)c(C)c(O)c1C(=O)/C=C/c1ccccc1`, the IC50 in the data set with MCF7-DOX was 46.8 µM. Further, the viability at 48 h, 12.5 µM in data set [1] was 86%.

Turning to `COc1ccc(/C=C/C(=O)c2c(OC)cc(OC)c(CC=C(C)C)c2O)cc1`, the IC50 with MCF7-DOX amounted to 46.9 µM. Also, the viability at 48 h, 12.5 µM in data set [1] is > 99%.

Consider `CCCCCc1c(OC)cc(OC)c(C(=O)/C=C/c2cccc(N3CCNCC3)c2)c1O`, for which, in the data set with MCF7-DOX, the IC50 was > 100 µM. Besides, the viability at 48 h, 12.5 µM in data set [1] amounted to 93.6%.

Take `COc1cc(OC)c(C(=O)/C=C/c2cccc(Cl)c2)c(O)c1CC=C(C)C`: in the data set on MCF7-DOX, the IC50 came to 59.5 µM. Besides, in data set [1], the viability at 48 h, 12.5 µM is > 99%.

In the case of `CCCCc1c(OC)cc(OC)c(C(=O)/C=C/c2cccc(N3CCNCC3)c2)c1O`, the IC50 with MCF7-DOX is > 100 µM. Further, the viability at 48 h, 12.5 µM in data set [1] stood at 91.6%.

Turning to `CCCc1c(OC)cc(OC)c(C(=O)/C=C/c2cccc(N3CCNCC3)c2)c1O`, the IC50 in the data set on MCF7-DOX was > 100 µM. In data set [1], the viability at 48 h, 12.5 µM was > 99%.

Take `COc1cc(OC)c(C(=O)/C=C/c2cccc(F)c2)c(O)c1CC=C(C)C`: in the data set with MCF7-DOX, the IC50 was 45.4 µM. Besides, in data set [1], the viability at 48 h, 12.5 µM amounted to 92.7%.

`COc1cc(O)c(C(=O)/C=C/c2cccc(N3CCN(C)CC3)c2)c(OC)c1`: the IC50 in the data set on MCF7-DOX worked out at 62.2 µM. Moreover, the viability at 48 h, 12.5 µM in data set [1] is > 99%.

Regarding `COc1cc(OC)c(C(=O)/C=C/c2cccc(N3CCN(C(=O)OC(C)(C)C)CC3)c2)c(O)c1CC=C(C)C`, the IC50 with MCF7-DOX came out at 42.6 µM. Moreover, the viability at 48 h, 12.5 µM in data set [1] stood at 93%.

On to `COc1cc(OC)c(C(=O)/C=C/c2ccc(N3CCN(C(=O)OC(C)(C)C)CC3)cc2)c(O)c1CC=C(C)C`, for which the IC50 with MCF7-DOX was > 100 µM. Besides, the viability at 48 h, 12.5 µM in data set [1] is > 99%.

In the case of `CCc1c(OC)cc(OC)c(C(=O)/C=C/c2cccc(N3CCNCC3)c2)c1O`, in the data set on MCF7-DOX, the IC50 was > 100 µM. Also, the viability at 48 h, 12.5 µM in data set [1] is 89.5%.

Regarding `COc1cc(OC)c(C(=O)/C=C/c2cccc(C(F)(F)F)c2)c(O)c1CC=C(C)C`, the IC50 with MCF7-DOX was determined as 66.6 µM. Besides, the viability at 48 h, 12.5 µM in data set [1] turned out to be 91.6%.

As for `COc1cccc(/C=C/C(=O)c2c(OC)cc(OC)c(CC=C(C)C)c2O)c1`, the IC50 in the data set on MCF7-DOX was 49.2 µM. The viability at 48 h, 12.5 µM in data set [1] is > 99%.

With `COc1cc(OC)c(C(=O)/C=C/c2ccc(N(C)C)cc2)c(O)c1CC=C(C)C`, the IC50 in the data set with MCF7-DOX was > 100 µM. The viability at 48 h, 12.5 µM in data set [1] was > 99%.
